Reference: patent publication US7229991B2, “Substituted 5-aminomethyl-1H-pyrrole-2-carboxamides” (priority 2002, dated 2007)
Read-outs that look alike come from different tables or passages of the source.

Experiments:
[1] = biological target: T1, 5-HT uptake (Rattus norvegicus, UniProt P31652); assay: 5-HT uptake inhibition in rat brain synaptosomes (medulla and pons); format: biochemical; set-up: concentration or dose not given beside the values; settings: conc. 10 (unit not given), [3H]-5-HT
T1 construct: Synaptosomes from rat brain regions (the “P2” fraction was used) were freshly isolated; from tissue; host or cells: rat brain synaptosomes (P2 fraction), medulla and pons
T1 sequence (P31652 whole entry): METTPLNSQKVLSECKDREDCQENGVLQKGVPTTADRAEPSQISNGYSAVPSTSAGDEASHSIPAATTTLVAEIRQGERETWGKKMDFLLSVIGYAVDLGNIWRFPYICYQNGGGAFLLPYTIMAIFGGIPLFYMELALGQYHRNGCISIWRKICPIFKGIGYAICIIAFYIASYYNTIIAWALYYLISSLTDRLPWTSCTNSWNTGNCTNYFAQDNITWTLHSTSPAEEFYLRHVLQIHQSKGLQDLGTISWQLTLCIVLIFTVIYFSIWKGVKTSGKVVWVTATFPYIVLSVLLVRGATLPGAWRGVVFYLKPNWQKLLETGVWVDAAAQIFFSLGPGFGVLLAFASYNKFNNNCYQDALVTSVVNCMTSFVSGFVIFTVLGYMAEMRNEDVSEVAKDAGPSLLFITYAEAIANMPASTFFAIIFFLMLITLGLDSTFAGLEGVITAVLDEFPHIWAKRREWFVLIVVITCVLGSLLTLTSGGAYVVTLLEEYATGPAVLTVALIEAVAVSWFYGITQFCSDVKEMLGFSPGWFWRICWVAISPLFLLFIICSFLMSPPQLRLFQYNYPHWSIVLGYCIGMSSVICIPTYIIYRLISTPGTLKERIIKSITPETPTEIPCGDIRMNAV
Excerpt: (§1) c) Method for Determining Noradrenalin and the 5-HT Uptake Inhibition:
(§2) Synaptosomes from rat brain regions (the “P2” fraction was used) were freshly isolated for in vitro studies, as described in the publication “The isolation of nerve endings from brain” by E. G. Gray and V. P. Whittaker, J. Anatomy 76, pages 79-88, 1962. The corresponding literature description is hereby introduced as a reference and is deemed to be part of the disclosure.
(§3) The tissue (hypothalamus for the determination of noradrenalin uptake inhibition and medulla and pons for the determination of 5-HT uptake inhibition) was homogenised in ice-cooled 0.32 M sucrose (100 mg of tissue/1 mL) in a glass homogeniser with teflon pestle using five complete up and down strokes at 840 revolutions/minute.
(§4) The homogenate was centrifuged at 4° C. for 10 minutes at 1000 g. After subsequent centrifugation at 17000 g for 55 minutes, the synaptosomes (P2 fraction) were obtained, which were resuspended in 0.32 M glucose (0.5 mL/100 mg of original weight).
(§5) The particular uptake was measured in a 96-well microtitre plate. The volume was 250 μl and the incubation proceeded at room temperature (approx. 20-25° C.) under an O2 atmosphere.
(§6) The incubation time was 7.5 minutes for [^3H]-NA and 5 minutes for [^3H]-5-HT. The 96 samples were then filtered through a Unifilter GF/B® microtitre plate (Packard) and washed with […] of incubated buffer using a “Brabdel MPXRI-96T Cell-Harvester”. The Unifilter GF/B plate was dried for 1 hour at 55° C. The plate was then sealed with a Back seal® (Packard) and 35 μl of scintillation fluid were added per well (Ultima gold®, Packard). After sealing with a top seal® (Packard) and establishment of equilibrium (around 5 hours), radioactivity was determined in a “Trilux 1450 Microbeta” (Wallac).
(§7) The quantity of protein used in the above determination corresponded to the values known from the literature, as for example described in “Protein measurement with the folin phenol reagent”, Lowry et al., J. Biol. Chem., 193, 265-275, 1951. A detailed description of the method may also be found in the literature, for example in M.Ch. Frink, H.-H. Hennies, W. Engelberger, M. Haurand and B. Wilffert (1996) Arzneim.-Forsch./Drug Res. 46 (III), 11, 1029-1036. The corresponding literature descriptions are hereby introduced as a reference and are deemed to be part of the disclosure.

[2] = biological target: T2, NA transporter (Rattus norvegicus, UniProt Q63380); assay: noradrenalin uptake inhibition in rat brain synaptosomes (hypothalamus); format: biochemical; set-up: concentration or dose not given beside the values; settings: conc. 10 (unit not given), [3H]-NA
T2 construct: Synaptosomes from rat brain regions (the “P2” fraction was used) were freshly isolated; from tissue; host or cells: rat brain synaptosomes (P2 fraction), hypothalamus
T2 sequence (Q63380 1-617): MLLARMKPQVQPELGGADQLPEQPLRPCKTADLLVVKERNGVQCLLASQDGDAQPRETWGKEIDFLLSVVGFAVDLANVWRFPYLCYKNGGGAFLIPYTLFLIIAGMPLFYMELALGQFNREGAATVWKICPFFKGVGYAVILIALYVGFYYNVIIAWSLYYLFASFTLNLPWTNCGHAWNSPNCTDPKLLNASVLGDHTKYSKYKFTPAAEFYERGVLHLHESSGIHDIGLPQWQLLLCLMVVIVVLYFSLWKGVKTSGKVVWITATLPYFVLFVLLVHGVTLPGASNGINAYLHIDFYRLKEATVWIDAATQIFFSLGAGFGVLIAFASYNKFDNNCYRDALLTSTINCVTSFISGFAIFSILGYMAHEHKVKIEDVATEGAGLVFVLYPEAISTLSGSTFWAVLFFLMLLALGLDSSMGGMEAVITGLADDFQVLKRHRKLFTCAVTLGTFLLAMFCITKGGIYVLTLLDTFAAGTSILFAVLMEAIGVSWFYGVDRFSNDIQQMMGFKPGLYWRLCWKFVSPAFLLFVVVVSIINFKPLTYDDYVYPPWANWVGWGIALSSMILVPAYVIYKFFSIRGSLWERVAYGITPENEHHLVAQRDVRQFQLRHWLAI
Excerpt: as §1, §2, §3, §4, §5, §6
The following characteristics were determined for the NA transporter: NAuptake: Km=0.32±0.11 μM
as §7

[3] = biological target: human μ opiate receptor (Homo sapiens, UniProt P35372); assay: human μ opiate receptor binding assay with [3H]-naloxone, CHO-K1 membrane preparation; settings: for inhibition at 1 µM: read-out: Human ORm Nal inhibition [%]
Sequence of human μ opiate receptor (P35372 whole entry): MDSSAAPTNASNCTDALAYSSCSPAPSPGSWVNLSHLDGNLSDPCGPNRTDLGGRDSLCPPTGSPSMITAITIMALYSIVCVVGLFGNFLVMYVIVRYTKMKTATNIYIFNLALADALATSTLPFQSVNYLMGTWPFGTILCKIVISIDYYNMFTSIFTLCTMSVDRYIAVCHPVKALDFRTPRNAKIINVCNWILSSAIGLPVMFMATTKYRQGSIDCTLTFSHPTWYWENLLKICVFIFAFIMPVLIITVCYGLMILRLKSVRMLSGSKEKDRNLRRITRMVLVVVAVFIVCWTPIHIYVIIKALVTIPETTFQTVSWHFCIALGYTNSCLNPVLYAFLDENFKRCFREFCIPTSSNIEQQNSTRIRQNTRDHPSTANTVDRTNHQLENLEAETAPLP
Protocol: b) Method for Determining Affinity for the Human μ Opiate Receptor
Receptor affinity for the human μ opiate receptor was determined in a homogeneous batch in microtitre plates. To this end, dilution series of the particular substituted 5-aminomethyl-1H-pyrrole-2-carboxylic acid amide of the general formula I to be tested were incubated at room temperature for 90 minutes in a total volume of 250 μl with a receptor membrane preparation (15-40 μg of protein per 250 μl of incubation batch) of CHO—K1 cells, which express the human μ opiate receptor (RB—HOM receptor membrane preparation from NEN, Zaventem, Belgium) in the presence of 1 nmol/l of the radioactive ligand [^3H]-naloxone (NET719, from NEN, Zaventem, Belgium) and of 1 mg of WGA-SPA beads (wheat germ agglutinin SPA beads from Amersham/Pharmacia, Freiburg, Germany). The incubation buffer used was 50 mmol/l tris-HCl supplemented with 0.05 wt. % of sodium azide and with 0.06 wt. % of bovine serum albumin. 25 μmol/l of naloxone were additionally added to determine nonspecific binding. Once the ninety minute incubation time had elapsed, the microtitre plates were centrifuged off for 20 minutes at 1000 g and the radioactivity measured in a β-Counter (Microbeta-Trilux, from PerkinElmer Wallac, Freiburg, Germany). The percentage displacement of the radioactive ligand from its binding to the human μ opiate receptor was determined at a concentration of the compounds to be tested of 1 μmol/l and stated as percentage inhibition of specific binding. On the basis of the percentage displacement by different concentrations of the compounds to be tested of the general formula I, IC50 inhibition concentrations which bring about 50% displacement of the radioactive ligand were calculated. Ki values for the test substances were obtained by conversion using the Cheng-Prusoff equation.

[4] = [3H]-naloxone, from IC50 by the Cheng-Prusoff equation, read-out: Human ORm Nal Ki

SMILES | 5-HT uptake inhibition [%] conc. 10 [1] [%] | Noradrenalin uptake inhibition [%] conc. 10 [2] [%] | Ki [3] [nM] | inhibition at 1 µM [3] [%] | Ki [3, 4] [nM]
CN(C)C(c1ccc(F)cc1)c1ccc(C(=O)NC2CCCCC2)n1C.Cl (centres unmarked) [Example 1, 5-[Dimethylamino-(4-fluoro-phenyl)-methyl]-1-methyl-1H-pyrrole-2-carboxylic acid cyclohexylamide hydrochloride] | 57 | 80 | 160 | 62 | –
CCCCNC(=O)c1ccc(C(c2ccc(F)cc2)N(C)C)n1C.Cl (centres unmarked) [Example 2, 5-[Dimethylamino-(4-fluoro-phenyl)-methyl]-1-methyl-1H-pyrrole-2-carboxylic acid butylamide hydrochloride] | 52 | 72 | – | 49 | 360
CN(C)C(c1ccc(F)cc1)c1ccc(C(=O)N2CCCC2)n1C.Cl (centres unmarked) [Example 3, {5-[Dimethylamino-(4-fluoro-phenyl)-methyl]-1-methyl-1H-pyrrol-2-yl}-pyrrolidin-1-yl-methanone hydrochloride] | – | 38 | – | – | –
CN(C)C(c1ccc(Br)cc1)c1ccc(C(=O)NC2CCCCC2)n1C.Cl (centres unmarked) [Example 4, 5-[Dimethylamino-(4-bromo-phenyl)-methyl]-1-methyl-1H-pyrrole-2-carboxylic acid cyclohexylamide hydrochloride] | 72 | 93 | – | 80 | 790
CCCCNC(=O)c1ccc(C(c2ccc(Br)cc2)N(C)C)n1C.Cl (centres unmarked) [Example 5, 5-[Dimethylamino-(4-bromo-phenyl)-methyl]-1-methyl-1H-pyrrole-2-carboxylic acid butylamide hydrochloride] | 57 | 86 | – | 62 | –
CN(C)C(c1ccc(Br)cc1)c1ccc(C(=O)N2CCCC2)n1C.Cl (centres unmarked) [Example 6, {5-[(4-Bromo-phenyl)-dimethylamino-methyl]-1-methyl-1H-pyrrol-2-yl)-pyrrolidin-1-yl-methanone hydrochloride] | 51 | 83 | – | – | –
CN(C)C(c1ccc(Br)cc1)c1ccc(C(=O)NCCc2ccccc2)n1C.Cl (centres unmarked) [Example 7, 5-[(4-Bromo-phenyl)-dimethylamino-methyl]-1-methyl-1H-pyrrole-2-carboxylic acid phenethylamide hydrochloride] | 93 | 95 | 1000 | 65 | –
CN(C)C(c1ccc(Br)cc1)c1ccc(C(=O)N2CCOCC2)n1C.Cl (centres unmarked) [Example 8, {5-[(4-Bromo-phenyl)-dimethylamino-methyl]-1-methyl-1H-pyrrol-2-yl}-morpholin-4-yl-methanone hydrochloride] | 79 | 43 | – | – | –
CN(C)C(c1ccccc1)c1ccc(C(=O)NC2CCCCC2)n1C.Cl (centres unmarked) [Example 9, 5-(Dimethylamino-phenyl-methyl)-1-methyl-1H-pyrrole-2-carboxylic acid cyclohexylamide hydrochloride] | – | 70 | – | 76 | –
CCCCNC(=O)c1ccc(C(c2ccccc2)N(C)C)n1C.Cl (centres unmarked) [Example 10, 5-(Dimethylamino-phenyl-methyl)-1-methyl-1H-pyrrole-2-carboxylic acid butylamide hydrochloride] | – | 52 | – | – | –
CN(C)C(c1ccccc1)c1ccc(C(=O)N2CCCC2)n1C.Cl (centres unmarked) [Example 11, [5-(Dimethylamino-phenyl-methyl)-1-methyl-1H-pyrrol-2-yl]-pyrrolidin-1-yl-methanone hydrochloride] | 54 | – | – | 33 | –
